Experiment [1] addresses T1, Peroxisome proliferator-activated receptor gamma (Homo sapiens, UniProt P37231).
T1 sequence (P37231 whole entry): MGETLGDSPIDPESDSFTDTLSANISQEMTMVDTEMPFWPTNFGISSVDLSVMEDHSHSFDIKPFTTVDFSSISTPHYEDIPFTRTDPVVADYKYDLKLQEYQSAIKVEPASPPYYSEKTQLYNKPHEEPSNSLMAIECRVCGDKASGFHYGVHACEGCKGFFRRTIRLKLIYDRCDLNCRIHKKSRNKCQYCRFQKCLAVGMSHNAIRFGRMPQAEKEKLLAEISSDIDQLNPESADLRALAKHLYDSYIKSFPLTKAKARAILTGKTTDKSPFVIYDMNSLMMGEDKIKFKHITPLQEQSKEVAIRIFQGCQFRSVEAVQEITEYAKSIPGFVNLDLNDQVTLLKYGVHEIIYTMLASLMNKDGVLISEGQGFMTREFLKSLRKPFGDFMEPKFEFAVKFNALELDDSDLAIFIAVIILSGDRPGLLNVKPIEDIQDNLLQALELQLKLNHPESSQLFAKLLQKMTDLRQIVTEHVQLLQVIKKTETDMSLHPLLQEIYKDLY
Description: Maximal reporter activity against human Peroxisome proliferator activated receptor gamma Gal4 chimeric in transiently transfected CV-1 cells by functional assay.

Experiment [2] concerns the target T1, Peroxisome proliferator-activated receptor gamma. The source holds these as a separate data set.
Description: Binding affinity to human Peroxisome proliferator activated receptor gamma using scintillation proximity assay
For experiment [3], the target named is T2, Peroxisome proliferator-activated receptor delta (Homo sapiens, UniProt Q03181).
T2 sequence (Q03181 whole entry): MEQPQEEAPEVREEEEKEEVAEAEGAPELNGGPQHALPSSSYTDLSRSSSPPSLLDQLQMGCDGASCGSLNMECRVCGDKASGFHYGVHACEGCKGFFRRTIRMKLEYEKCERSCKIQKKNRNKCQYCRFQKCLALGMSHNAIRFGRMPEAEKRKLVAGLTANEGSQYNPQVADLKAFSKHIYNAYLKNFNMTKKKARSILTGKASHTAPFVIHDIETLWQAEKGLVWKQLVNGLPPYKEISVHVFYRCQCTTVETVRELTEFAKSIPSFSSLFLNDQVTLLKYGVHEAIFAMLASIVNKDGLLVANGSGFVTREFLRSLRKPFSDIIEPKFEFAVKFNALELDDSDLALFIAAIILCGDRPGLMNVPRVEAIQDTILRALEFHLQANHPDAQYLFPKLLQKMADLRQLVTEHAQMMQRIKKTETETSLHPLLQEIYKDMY
Put plainly: Binding affinity to bind to human Peroxisome proliferator activated receptor delta using scintillation proximity assay.

In experiment [4] the target is T3, Peroxisome proliferator-activated receptor alpha (Homo sapiens, UniProt Q07869).
T3 sequence (Q07869 whole entry): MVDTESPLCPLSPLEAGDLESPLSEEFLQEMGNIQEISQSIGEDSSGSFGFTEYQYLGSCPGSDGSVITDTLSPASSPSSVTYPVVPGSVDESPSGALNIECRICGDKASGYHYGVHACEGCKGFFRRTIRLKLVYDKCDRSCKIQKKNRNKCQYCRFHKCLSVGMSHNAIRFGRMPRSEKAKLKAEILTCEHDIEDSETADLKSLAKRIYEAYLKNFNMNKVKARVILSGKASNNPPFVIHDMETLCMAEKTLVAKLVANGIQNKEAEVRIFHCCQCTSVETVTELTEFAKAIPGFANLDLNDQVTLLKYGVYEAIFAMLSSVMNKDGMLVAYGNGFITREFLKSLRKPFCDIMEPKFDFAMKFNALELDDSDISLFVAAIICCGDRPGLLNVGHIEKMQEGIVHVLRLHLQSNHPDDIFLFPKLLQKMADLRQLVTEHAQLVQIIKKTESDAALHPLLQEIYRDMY
Put plainly: Maximal reporter activity against human Peroxisome proliferator activated receptor alpha Gal4 chimeric in transiently transfected CV-1 cells by functional assay. The class given is cell-based.

The target in experiment [5] is T2, Peroxisome proliferator-activated receptor delta. Put plainly: Concentration that gave 50% of maximal reporter activity against human Peroxisome proliferator activated receptor delta Gal4 chimeric in transiently transfected CV-1 cells by functional assay. The class given is cell-based.
The test system of experiment [6] is Rattus norvegicus. Put plainly: In vivo efficacy expressed as reduction in fasting plasma glucose at a dose of 10 mg/kg, oral, for 14 days in male rats. The experiment is classed as functional.
Experiment [7] has as its system Rattus norvegicus. Put plainly: In vivo efficacy expressed as increase in HDL-cholesterol after at a dose of 10 mg/kg, oral, for 14 days in male rats. The class given is functional.
Experiment [8] has as its system Rattus norvegicus. Put plainly: In vivo efficacy expressed as reduction in fasting serum triglycerides at a dose of 10 mg/kg, oral, for 14 days in male rats. The experiment is classed as functional.

We go through 12 compounds from ChEMBL document CHEMBL1133869, “Synthesis and biological activity of L-tyrosine-based PPARgamma agonists with reduced molecular weight” (Bioorg Med Chem Lett, 2001).

pEC50, pKi: −log10 of the molar value.

Turning to `CC(=O)N[C@@H](Cc1ccc(OCCc2nc(-c3ccccc3)oc2C)cc1)C(=O)O`, in experiment [1], the pEC50 (usually the EC50 on a negative log10 scale, so that one unit is a factor of ten) is 5.46. Further, the pKi (usually −log10 of the Ki, conventionally taken in molar units) in experiment [2] was 5.59.
On the same counts, the results for `CN[C@@H](Cc1ccc(OCCc2nc(-c3ccccc3)oc2C)cc1)C(=O)O` are 5.30 and 5.68.
Taken in the same sequence, the figures for `Cc1oc(-c2ccccc2)nc1CCOc1ccc(C[C@H](NS(C)(=O)=O)C(=O)O)cc1` were 5.59 and 6.21.
In the case of `Cc1oc(-c2ccccc2)nc1CCOc1ccc(C[C@@H](C(=O)O)n2c(C)ccc2C)cc1`, the pEC50 in experiment [1] is 6.15. The compound further showed a negative logarithm of the Ki (pKi) in experiment [2] of 6.01.
With `Cc1oc(-c2ccccc2)nc1CCOc1ccc(C[C@@H](C(=O)O)N(C)C)cc1`, the pEC50 in experiment [1] is 6.39. The pKi in experiment [2] is 6.07.
In experiment [1], `Cc1oc(-c2ccccc2)nc1CCOc1ccc(C[C@H](Nc2ncccn2)C(=O)O)cc1` showed a pEC50 of 6.23. For the same compound, the pKi in experiment [2] was 6.55.
With `Cc1oc(-c2ccccc2)nc1CCOc1ccc(C[C@@H](C(=O)O)N2CCCC2)cc1`, the pEC50 in experiment [1] is 6.41. The compound also showed a pKi in experiment [2] of 6.44.
Taken in the same sequence, the figures for `CCCN[C@@H](Cc1ccc(OCCc2nc(-c3ccccc3)oc2C)cc1)C(=O)O` were 6.62 and 7.28.
Take `Cc1oc(-c2ccccc2)nc1CCOc1ccc(C[C@@H](C(=O)O)N2CCCCC2)cc1`: the negative-log EC50 (pEC50) in experiment [1] was 6.86. In experiment [2], this compound showed a pKi of 6.32.
The compound `Cc1oc(-c2ccccc2)nc1CCOc1ccc(C[C@H](Nc2ccccc2C(=O)c2ccccc2)C(=O)O)cc1` [FARGLITAZAR] gave a pKi in experiment [3] of 5.92.
Consider `Cc1oc(-c2ccccc2)nc1CCOc1ccc(C[C@@H](C(=O)O)N2CCOCC2)cc1`, for which the pEC50 was 7.62 in experiment [1] and 5.16 in experiment [4]. The pKi in experiment [2] was 6.80.
In turn, `Cc1oc(-c2ccccc2)nc1CCOc1ccc(C[C@@H](C(=O)O)n2cccc2)cc1` had a pKi in experiment [3] of 5.60. The pEC50 in experiment [5] is 5.42. Moreover, the Reduction with Rattus norvegicus [6] was determined as 40%; with Rattus norvegicus [8] it was 24%. In the experiment on Rattus norvegicus [7], this compound yielded an Increase of 31%.
